Results: patent US8846698B2, “Pyrrolo[2,3-d]pyrimidine tropomysin-related kinase inhibitors” (Pfizer Limited, priority 2011, dated 2014)

molecular target: TRKA (Homo sapiens (Human), UniProt P04629); experiment: Isolated TRK enzyme assay (HTRF KinEASE-TK), TRKA; assay type: biochemical; conditions: read-out: Trka enzyme (IC50)
Sequence (P04629 441-796): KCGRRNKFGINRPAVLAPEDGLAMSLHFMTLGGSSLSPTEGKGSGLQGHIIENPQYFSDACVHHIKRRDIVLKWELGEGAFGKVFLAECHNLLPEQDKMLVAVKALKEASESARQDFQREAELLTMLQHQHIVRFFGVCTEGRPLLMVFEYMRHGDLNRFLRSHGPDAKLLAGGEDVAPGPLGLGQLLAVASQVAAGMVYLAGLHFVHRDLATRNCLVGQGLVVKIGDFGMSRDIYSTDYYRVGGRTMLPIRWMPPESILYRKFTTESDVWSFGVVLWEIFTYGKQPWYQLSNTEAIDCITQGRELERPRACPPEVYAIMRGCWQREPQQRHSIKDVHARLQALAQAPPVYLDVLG

Cn1cc(C(=O)c2cncc(NC(=O)CCc3cccc(Cl)c3)c2)c2cncnc21 [Example 323, 3-(3-chlorophenyl)-N-{5-[(7-methyl-7H-pyrrolo[2,3-d]pyrimidin-5-yl)carbonyl]pyridin-3-yl}propanamide] and Cn1cc(C(=O)c2cncc(NC(=O)CCc3cccc(F)c3)c2)c2cncnc21 [Example 324, 3-(3-fluorophenyl)-N-{5-[(7-methyl-7H-pyrrolo[2,3-d]pyrimidin-5-yl)carbonyl]pyridin-3-yl}propanamide] are the same in IC50: 3100 nM for the first, 3100 nM for the second.

First: Cn1cc(C(=O)c2cncc(NC(=O)COc3ccccc3OC(F)(F)F)c2)c2cncnc21 [Example 325, N-{5-[(7-methyl-7H-pyrrolo[2,3-d]pyrimidin-5-yl)carbonyl]pyridin-3-yl}-2-[2-(trifluoromethoxy)phenoxy]acetamide]
Second: Cn1cc(C(=O)c2cncc(NC(=O)COc3ccccc3)c2)c2cncnc21 [Example 332, N-{5-[(7-methyl-7H-pyrrolo[2,3-d]pyrimidin-5-yl)carbonyl]pyridin-3-yl}-2-phenoxyacetamide]
The IC50 of the first is 20-fold lower: 111 nM for the first, 2180 nM for the second.

Cc1ccccc1CCC(=O)Nc1cncc(C(=O)c2cn(C)c3ncncc23)c1 [Example 326, 3-(2-methylphenyl)-N-{5-[(7-methyl-7H-pyrrolo[2,3-d]pyrimidin-5-yl)carbonyl]pyridin-3-yl}propanamide] and Cn1cc(C(=O)c2cncc(NC(=O)CCc3ccccc3F)c2)c2cncnc21 [Example 327, 3-(2-fluorophenyl)-N-{5-[(7-methyl-7H-pyrrolo[2,3-d]pyrimidin-5-yl)carbonyl]pyridin-3-yl}propanamide] are within 1.5-fold of each other in IC50: 2980 nM for the first, 3100 nM for the second.

Cn1cc(C(=O)c2cncc(NC(=O)CCc3ccc(F)cc3)c2)c2cncnc21 [Example 328, 3-(4-fluorophenyl)-N-{5-[(7-methyl-7H-pyrrolo[2,3-d]pyrimidin-5-yl)carbonyl]pyridin-3-yl}propanamide] and Cc1ccc(CCC(=O)Nc2cncc(C(=O)c3cn(C)c4ncncc34)c2)cc1 [Example 330, 3-(4-methylphenyl)-N-{5-[(7-methyl-7H-pyrrolo[2,3-d]pyrimidin-5-yl)carbonyl]pyridin-3-yl}propanamide] are the same in IC50: 3100 nM for the first, 3100 nM for the second.

Going from Cn1cc(C(=O)c2cncc(NC(=O)CCc3ccccc3)c2)c2cncnc21 [Example 329, N-{5-[(7-methyl-7H-pyrrolo[2,3-d]pyrimidin-5-yl)carbonyl]pyridin-3-yl}-3-phenylpropanamide] to C[C@@H](C(=O)Nc1cncc(C(=O)c2cn(C)c3ncncc23)c1)c1ccccc1 [Example 338, (2R)—N-{5-[(7-methyl-7H-pyrrolo[2,3-d]pyrimidin-5-yl)carbonyl]pyridin-3-yl}-2-phenylpropanamide], the IC50 falls from 9810 nM to 2730 nM (3.6-fold). The second is the more potent here.

Cn1cc(C(=O)c2cncc(NC(=O)Cc3ccc(NS(=O)(=O)C(F)(F)F)cc3)c2)c2cncnc21 [Example 331, N-{5-[(7-methyl-7H-pyrrolo[2,3-d]pyrimidin-5-yl)carbonyl]pyridin-3-yl}-2-(4-{[(trifluoromethyl)sulfonyl]amino}phenyl)acetamide] and COCc1ccc(CC(=O)Nc2cncc(C(=O)c3cn(C)c4ncncc34)c2)cc1 [Example 333, 2-[4-(methoxymethyl)phenyl]-N-{5-[(7-methyl-7H-pyrrolo[2,3-d]pyrimidin-5-yl)carbonyl]pyridin-3-yl}acetamide] are within 1.5-fold of each other in IC50: 9810 nM for the first, 9800 nM for the second.

Compared with Cn1cc(C(=O)c2cncc(NC(=O)COc3ccc(F)cc3)c2)c2cncnc21 [Example 334, 2-(4-fluorophenoxy)-N-{5-[(7-methyl-7H-pyrrolo[2,3-d]pyrimidin-5-yl)carbonyl]pyridin-3-yl}acetamide], CC(C)n1cc(C(=O)c2cncc(NC(=O)COc3ccc(OC(F)(F)F)cc3)c2)c2cncnc21 [Example 348, N-(5-{[7-(propan-2-yl)-7H-pyrrolo[2,3-d]pyrimidin-5-yl]carbonyl}pyridin-3-yl)-2-[4-(trifluoromethoxy)phenoxy]acetamide] is 42-fold lower in IC50: 1550 nM for the first, 36.6 nM for the second.

Compared with Cn1cc(C(=O)c2cncc(NC(=O)C3(c4ccccc4)CC3)c2)c2cncnc21 [Example 336, N-{5-[(7-methyl-7H-pyrrolo[2,3-d]pyrimidin-5-yl)carbonyl]pyridin-3-yl}-1-phenylcyclopropanecarboxamide], Cn1cc(C(=O)c2cncc(NC(=O)C3Cc4ccccc4C3)c2)c2cncnc21 [Example 337, N-{5-[(7-methyl-7H-pyrrolo[2,3-d]pyrimidin-5-yl)carbonyl]pyridin-3-yl}indane-2-carboxamide] is 2.3-fold lower in IC50: 9800 nM for the first, 4280 nM for the second. The second is the more potent here.

First: CC(C)n1cc(C(=O)c2cncc(NC(=O)C(CO)c3ccccc3)c2)c2cncnc21 (stereo not shown) [Example 339, 3-hydroxy-2-phenyl-N-(5-{[7-(propan-2-yl)-7H-pyrrolo[2,3-d]pyrimidin-5-yl]carbonyl}pyridin-3-yl)propanamide]
Second: CC(C)n1cc(C(=O)c2cncc(NC(=O)COc3ccccc3C#N)c2)c2cncnc21 [Example 347, 2-(2-cyanophenoxy)-N-(5-{[7-(propan-2-yl)-7H-pyrrolo[2,3-d]pyrimidin-5-yl]carbonyl}pyridin-3-yl)acetamide]
The IC50 of the first is 1.6-fold higher: 251 nM for the first, 155 nM for the second. The second is the more potent here.

Compared with COc1ccc2c(ccn2CC(=O)Nc2cncc(C(=O)c3cn(C(C)C)c4ncncc34)c2)c1 [Example 340, N-{5-[(7-isopropyl-7H-pyrrolo[2,3-d]pyrimidin-5-yl)carbonyl]-pyridin-3-yl}-2-(5-methoxy-1H-indol-1-yl)acetamide], Cc1nccn1CC(=O)Nc1cncc(C(=O)c2cn(C(C)C)c3ncncc23)c1 [Example 359, N-[5-(7-Isopropyl-7H-pyrrolo[2,3-d]pyrimidine-5-carbonyl)-pyridin-3-yl]-2-(2-methyl-imidazol-1-yl)-acetamide] is 22-fold higher in IC50: 451 nM for the first, 9800 nM for the second. The first is the more potent here.

Compared with CC(C)n1cc(C(=O)c2cncc(NC(=O)c3cccc(Cl)c3)c2)c2cncnc21 [Example 343, 3-chloro-N-(5-{[7-(propan-2-yl)-7H-pyrrolo[2,3-d]pyrimidin-5-yl]carbonyl}pyridin-3-yl)benzamide], CC(C)n1cc(C(=O)c2cncc(NC(=O)c3ccc(Cl)cc3)c2)c2cncnc21 [Example 344, 4-chloro-N-(5-{[7-(propan-2-yl)-7H-pyrrolo[2,3-d]pyrimidin-5-yl]carbonyl}pyridin-3-yl)benzamide] is 6-fold higher in IC50: 53.9 nM for the first, 326 nM for the second.

CC(C)n1cc(C(=O)c2cncc(NC(=O)c3ccc(C(F)(F)F)cc3)c2)c2cncnc21 [Example 345, N-(5-{[7-(propan-2-yl)-7H-pyrrolo[2,3-d]pyrimidin-5-yl]carbonyl}pyridin-3-yl)-4-(trifluoromethyl)benzamide] and CC(C)n1cc(C(=O)c2cncc(NC(=O)c3ccc(OC(F)(F)F)cc3)c2)c2cncnc21 [Example 346, N-(5-{[7-(propan-2-yl)-7H-pyrrolo[2,3-d]pyrimidin-5-yl]carbonyl}pyridin-3-yl)-4-(trifluoromethoxy)benzamide] are within 1.5-fold of each other in IC50: 362 nM for the first, 253 nM for the second.

First: CC(C)n1cc(C(=O)c2cncc(NC(=O)C(N)c3ccc(Cl)cc3)c2)c2cncnc21 (stereo not shown) [Example 350, 2-amino-2-(4-chlorophenyl)-N-(5-(7-isopropyl-7H-pyrrolo[2,3-d]pyrimidine-5-carbonyl)pyridin-3-yl)acetamide]
Second: CC(C)n1cc(C(=O)c2cncc(NC(=O)Cn3cnc(Cl)c3Cl)c2)c2cncnc21 [Example 355, 2-(4,5-Dichloro-imidazol-1-yl)-N-[5-(7-isopropyl-7H-pyrrolo[2,3-d]pyrimidine-5-carbonyl)-pyridin-3-yl]-acetamide]
The IC50 of the first is 2-fold lower: 153 nM for the first, 302 nM for the second.

Going from CC(C)(CO)n1cc(C(=O)c2cncc(NC(=O)Cc3ccc(C#N)cn3)c2)c2cnc(N)nc21 [Example 351, N-{5-[2-Amino-7-(2-hydroxy-1,1-dimethyl-ethyl)-7H-pyrrolo[2,3-d]pyrimidine-5-carbonyl]-pyridin-3-yl}-2-(5-cyano-pyridin-2-yl)-acetamide] to CC(C)n1cc(C(=O)c2cncc(NC(=O)Cc3cn4ccsc4n3)c2)c2cncnc21 [Example 360, 2-Imidazo[2,1-b]thiazol-6-yl-N-[5-(7-isopropyl-7H-pyrrolo[2,3-d]pyrimidine-5-carbonyl)-pyridin-3-yl]-acetamide], the IC50 rises from 21.1 nM to 956 nM (45-fold).

Going from CC(C)n1cc(C(=O)c2cncc(NC(=O)Cc3cn(C4CC4)nc3C(F)(F)F)c2)c2cncnc21 [Example 352, 2-(1-Cyclopropyl-3-trifluoromethyl-1H-pyrazol-4-yl)-N-[5-(7-isopropyl-7H-pyrrolo[2,3-d]pyrimidine-5-carbonyl)-pyridin-3-yl]-acetamide] to Cc1nc(C)n(CC(=O)Nc2cncc(C(=O)c3cn(C(C)C)c4ncncc34)c2)n1 [Example 358, 2-(3,5-Dimethyl-1,2,4-triazol-1-yl)-N-[5-(7-isopropyl-7H-pyrrolo[2,3-d]pyrimidine-5-carbonyl)-pyridin-3-yl]-acetamide], the IC50 rises from 62.6 nM to 9800 nM (160-fold). The first is the more potent here.

Going from Cc1cc(C(F)F)n2nc(C(=O)Nc3cncc(C(=O)c4cn(C(C)C)c5ncncc45)c3)nc2n1 [Example 356, 7-Difluoromethyl-5-methyl-[1,2,4]triazolo[1,5-a]pyrimidine-2-carboxylic acid [5-(7-isopropyl-7H-pyrrolo[2,3-d]pyrimidine-5-carbonyl)-pyridin-3-yl]-amide] to Cc1sc2nc(CC(=O)Nc3cncc(C(=O)c4cn(C(C)C)c5ncncc45)c3)cn2c1C [Example 362, 2-(2,3-Dimethyl-imidazo[2,1-b]thiazol-6-yl)-N-[5-(7-isopropyl-7H-pyrrolo[2,3-d]pyrimidine-5-carbonyl)-pyridin-3-yl]-acetamide], the IC50 rises from 56.3 nM to 1910 nM (34-fold).

Going from CC(C)n1cc(C(=O)c2cncc(NC(=O)Cc3nnc(O)c4ccccc34)c2)c2cncnc21 [Example 361, 2-(4-Hydroxy-phthalazin-1-yl)-N-[5-(7-isopropyl-7H-pyrrolo[2,3-d]pyrimidine-5-carbonyl)-pyridin-3-yl]-acetamide] to CC(C)n1cc(C(=O)c2cncc(NC(=O)Cn3cc(C4(O)CCCC4)nn3)c2)c2cncnc21 [Example 363, 2-[4-(1-Hydroxy-cyclopentyl)-1,2,3-triazol-1-yl]-N-[5-(7-isopropyl-7H-pyrrolo[2,3-d]pyrimidine-5-carbonyl)-pyridin-3-yl]-acetamide], the IC50 falls from 7640 nM to 1030 nM (7.4-fold). The second is the more potent here.
